Source: patent US20260347338A1, “PYRIMIDINE/PYRIDINE DERIVATIVES OR SALTS THEREOF AND PHARMACEUTICAL COMPOSITIONS COMPRISING THE SAME” (YUHAN CORPORATION, priority 2023, published 2026)
pIC50: −log10 of the molar value. Counter-ions that a name gives are not always drawn.

Biological target: T1, human recombinant HPK1 (Homo sapiens, UniProt Q92918)
T1 construct: purchased BPS Bioscience
Test: Inhibitory activity against human recombinant HPK1 (TR-FRET)
Type: biochemical
Conditions: ULight-p70S6K peptide, ATP at Km, room temperature, 1 hour, 0.32 to 1000 nM compound
Procedure, shortened: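 Recombinant human HPK1 with ULight-p70S6K peptide and ATP at Km, 1 h at room temperature in HEPES pH 7.4 buffer with Mg2+, Mn2+, EGTA, DTT; compounds 0.32–1000 nM final. EDTA stop, Eu-anti-phosphopeptide TR-FRET read (665 nm); IC50 from % inhibition versus DMSO, binned A–D at 10, 50, 100 nM.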

T1 sequence (Q92918 whole entry): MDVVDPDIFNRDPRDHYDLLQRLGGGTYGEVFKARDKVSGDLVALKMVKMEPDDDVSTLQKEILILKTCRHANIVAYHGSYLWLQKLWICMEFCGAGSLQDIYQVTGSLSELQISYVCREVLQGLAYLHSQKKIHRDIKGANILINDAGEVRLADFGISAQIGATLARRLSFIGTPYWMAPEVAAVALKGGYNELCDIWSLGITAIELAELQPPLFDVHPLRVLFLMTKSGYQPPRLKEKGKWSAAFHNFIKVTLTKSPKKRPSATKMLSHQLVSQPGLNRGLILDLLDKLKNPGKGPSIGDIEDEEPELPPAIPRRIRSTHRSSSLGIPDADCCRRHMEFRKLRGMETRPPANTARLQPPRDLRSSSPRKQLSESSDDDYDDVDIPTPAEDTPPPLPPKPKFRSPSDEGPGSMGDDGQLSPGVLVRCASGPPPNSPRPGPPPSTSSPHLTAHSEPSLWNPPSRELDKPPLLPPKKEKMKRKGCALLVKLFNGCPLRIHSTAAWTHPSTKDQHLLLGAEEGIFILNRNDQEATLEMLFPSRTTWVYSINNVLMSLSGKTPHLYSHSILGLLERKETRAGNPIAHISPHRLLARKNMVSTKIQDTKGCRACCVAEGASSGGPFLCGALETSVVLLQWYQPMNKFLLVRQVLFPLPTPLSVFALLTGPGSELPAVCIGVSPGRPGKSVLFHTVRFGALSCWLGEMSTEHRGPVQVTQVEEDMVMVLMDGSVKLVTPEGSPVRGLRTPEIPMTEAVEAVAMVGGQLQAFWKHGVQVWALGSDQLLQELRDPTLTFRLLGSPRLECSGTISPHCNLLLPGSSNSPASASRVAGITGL

Row | SMILES | pIC50
1 | COc1cccc(F)c1-c1nccc(Nc2cc(N3CCC[C@H](O)C3)c(-c3ccc(C(=O)N4CCC(O)CC4)nc3)cn2)n1 [Example 38, (S)-(6′-((2-(2-fluoro-6-methoxyphenyl)pyrimidin-4-yl)amino)-4′-(3-hydroxypiperidin-1-yl)-[3,3′-bipyridin]-6-yl)(4-hydroxypiperidin-1-yl)methanone] | ≥ 8.00
2 | COc1cccc(F)c1-c1nccc(N(CCN(C)C)c2cc(N3CCC[C@H](N)C3)c(-c3ccc(N)nc3)cn2)n1 [Example 240, (S)-4-(3-aminopiperidin-1-yl)-N^6-(2-(dimethylamino)ethyl)-N^6-(2-(2-fluoro-6-methoxyphenyl)pyrimidin-4-yl)-[3,3′-bipyridin]-6,6′-diamine hydrochloride] | ≥ 8.00
3 | COc1cccc(F)c1-c1nccc(Nc2cc(N3CCC4(CCN(C)C4)CC3)c(-c3cnn(C4CCOCC4)c3)cn2)n1 [Example 117, 2-(2-fluoro-6-methoxyphenyl)-N-(4-(2-methyl-2,8-diazaspiro[4.5]decan-8-yl)-5-(1-(tetrahydro-2H-pyran-4-yl)-1H-pyrazol-4-yl)pyridin-2-yl)pyrimidin-4-amine] | ≥ 8.00
4 | COc1cccc(F)c1-c1nc(Nc2cc(N3CCC[C@H](N)C3)c(-c3cnn(CC(F)(F)F)c3)cn2)ccc1C#N [Example 318, 6-((4-((S)-3-aminopiperidin-1-yl)-5-(1-(2,2,2-trifluoroethyl)-1H-pyrazol-4-yl)pyridin-2-yl)amino)-2-(2-fluoro-6-methoxyphenyl)nicotinonitrile hydrochloride] | ≥ 8.00
5 | COc1cccc(F)c1-c1nccc(Nc2cc(N3CCC[C@H](N)C3)c(-c3ccc(F)c(N(C)C)c3)cn2)n1 [Example 296, (S)-N-(4-(3-aminopiperidin-1-yl)-5-(3-(dimethylamino)-4-fluorophenyl)pyridin-2-yl)-2-(2-fluoro-6-methoxyphenyl)pyrimidin-4-amine hydrochloride] | ≥ 8.00
6 | COc1cccc(F)c1-c1nccc(Nc2cc(N3CCC[C@H](N)C3)c(C#Cc3cnn(C(F)F)c3)cn2)n1 [Example 164, (S)-N-(4-(3-aminopiperidin-1-yl)-5-((1-(difluoromethyl)-1H-pyrazol-4-yl)ethynyl)pyridin-2-yl)-2-(2-fluoro-6-methoxyphenyl)pyrimidin-4-amine hydrochloride] | ≥ 8.00
7 | COc1cccc(F)c1-c1nccc(Nc2cc(N3CCC[C@H](N)C3)c(-c3ccc(C(=O)N(C)C)c(F)c3)cn2)n1 [Example 290, (S)-4-(4-(3-aminopiperidin-1-yl)-6-((2-(2-fluoro-6-methoxyphenyl)pyrimidin-4-yl)amino)pyridin-3-yl)-2-fluoro-N,N-dimethylbenzamide hydrochloride] | ≥ 8.00
8 | COc1cccc(F)c1-c1nccc(Nc2cc(N3CC[C@H](CO)[C@@H](O)C3)c(-c3cnn(C4CCOCC4)c3)cn2)n1 [Example 95, (3R,4R)-1-(2-((2-(2-fluoro-6-methoxyphenyl)pyrimidin-4-yl)amino)-5-(1-(tetrahydro-2H-pyran-4-yl)-1H-pyrazol-4-yl)pyridin-4-yl)-4-(hydroxymethyl)piperidin-3-ol] | ≥ 8.00
9 | COc1cc(F)cc(F)c1-c1nccc(Nc2cc(N3CCC[C@H](N)C3)c(-c3cnn(C(F)F)c3)cn2)n1 [Example 108, (S)-N-(4-(3-aminopiperidin-1-yl)-5-(1-(difluoromethyl)-1H-pyrazol-4-yl)pyridin-2-yl)-2-(2,4-difluoro-6-methoxyphenyl)pyrimidin-4-amine hydrochloride] | ≥ 8.00
10 | COc1cccc(F)c1-c1nc(Nc2cc(N3CC[C@@H](F)[C@H](N)C3)c(-c3cnn(C(F)F)c3)cn2)ccc1F [Example 341, 4-((3R,4R)-3-amino-4-fluoropiperidin-1-yl)-5-(1-(difluoromethyl)-1H-pyrazol-4-yl)-N-(5-fluoro-6-(2-fluoro-6-methoxyphenyl)pyridin-2-yl)pyridin-2-amine hydrochloride] | ≥ 8.00
11 | COc1cccc(F)c1-c1nccc(Nc2cc(N3CCC[C@H](N)C3)c(-c3cc(C)c(OC(C)C)c(C)c3)cn2)n1 [Example 284, (S)-N-(4-(3-aminopiperidin-1-yl)-5-(4-isopropoxy-3,5-dimethylphenyl)pyridin-2-yl)-2-(2-fluoro-6-methoxyphenyl)pyrimidin-4-amine hydrochloride] | ≥ 8.00
12 | COc1cccc(F)c1-c1nccc(Nc2cc(N3C[C@@H](N)C[C@H](O)C3)c(-c3cnn(C(F)F)c3)cn2)n1 [Example 306, (3S,5S)-5-amino-1-(5-(1-(difluoromethyl)-1H-pyrazol-4-yl)-2-((2-(2-fluoro-6-methoxyphenyl)pyrimidin-4-yl)amino)pyridin-4-yl)piperidin-3-ol hydrochloride] | ≥ 8.00
13 | COc1cccc(F)c1-c1nccc(Nc2cc(N3CCC[C@H](C)C3)c(-c3cnn(C(F)F)c3)cn2)n1 [Example 271, (S)-N-(5-(1-(difluoromethyl)-1H-pyrazol-4-yl)-4-(3-methylpiperidin-1-yl)pyridin-2-yl)-2-(2-fluoro-6-methoxyphenyl)pyrimidin-4-amine] | ≥ 8.00
14 | N[C@H]1CCCN(c2cc(Nc3ccnc(-c4c(F)cccc4CO)n3)ncc2-c2cnn(C(F)F)c2)C1 [Example 242, (S)-(2-(4-((4-(3-aminopiperidin-1-yl)-5-(1-(difluoromethyl)-1H-pyrazol-4-yl)pyridin-2-yl)amino)pyrimidin-2-yl)-3-fluorophenyl)methanol hydrochloride] | ≥ 8.00
15 | COc1cccc(F)c1-c1nccc(Nc2cc(N3CCC[C@H](N)C3)c(-c3cnn(CCN4CCOCC4)c3)cn2)n1 [Example 162, (S)-N-(4-(3-aminopiperidin-1-yl)-5-(1-(2-morpholinoethyl)-1H-pyrazol-4-yl)pyridin-2-yl)-2-(2-fluoro-6-methoxyphenyl)pyrimidin-4-amine hydrochloride] | ≥ 8.00
16 | COc1cc(CN(C)C)cc(F)c1-c1nccc(Nc2cc(N3CCC[C@H](N)C3)c(-c3cnn(C(F)F)c3)cn2)n1 [Example 104, (S)-N-(4-(3-aminopiperidin-1-yl)-5-(1-(difluoromethyl)-1H-pyrazol-4-yl)pyridin-2-yl)-2-(4-((dimethylamino)methyl)-2-fluoro-6-methoxyphenyl)pyrimidin-4-amine hydrochloride] | ≥ 8.00
17 | COc1cccc(F)c1-c1nccc(Nc2cc(N3CCC[C@H](N)C3)c(-c3cnn(CC(C)(C)OC)c3)cn2)n1 [Example 229, (S)-N-(4-(3-aminopiperidin-1-yl)-5-(1-(2-methoxy-2-methylpropyl)-1H-pyrazol-4-yl)pyridin-2-yl)-2-(2-fluoro-6-methoxyphenyl)pyrimidin-4-amine] | ≥ 8.00
18 | COc1cccc(F)c1-c1nccc(Nc2cc(N3CCC[C@H](O)C3)c(-c3ccc(C4CCOCC4)nc3)cn2)n1 [Example 31, (S)-1-(6-((2-(2-fluoro-6-methoxyphenyl)pyrimidin-4-yl)amino)-6′-(tetrahydro-2H-pyran-4-yl)-[3,3′-bipyridin]-4-yl)piperidin-3-ol] | ≥ 8.00
19 | COc1cccc(F)c1-c1nccc(Nc2cc(N3CC(O)C3)c(C#CC3CCOCC3)cn2)n1 [Example 10, 1-(2-((2-(2-fluoro-6-methoxyphenyl)pyrimidin-4-yl)amino)-5-((tetrahydro-2H-pyran-4-yl)ethynyl)pyridin-4-yl)azetidin-3-ol] | 7.30 to 8.00
20 | COc1cccc(F)c1-c1nccc(Nc2cc(N3CCC4(CCN(C)C4)CC3)c(-c3ccc(N4CCOCC4)nc3)cn2)n1 [Example 137, N-(2-(2-fluoro-6-methoxyphenyl)pyrimidin-4-yl)-4-(2-methyl-2,8-diazaspiro[4.5]decan-8-yl)-6′-morpholino-[3,3′-bipyridin]-6-amine] | ≥ 8.00
21 | COc1cccc(F)c1-c1nccc(Nc2cc(N3CCC[C@H](N)C3)c(-c3cnn(CC(=O)N(C)C)c3)cn2)n1 [Example 132, (S)-2-(4-(4-(3-aminopiperidin-1-yl)-6-((2-(2-fluoro-6-methoxyphenyl)pyrimidin-4-yl)amino)pyridin-3-yl)-1H-pyrazol-1-yl)-N,N-dimethylacetamide hydrochloride] | ≥ 8.00
22 | COc1cccc(F)c1-c1nccc(Nc2cc(N3CCC[C@H](N)C3)c(-c3ccc(N4CCCCC4)nc3)cn2)n1 [Example 120, (S)-4-(3-aminopiperidin-1-yl)-N-(2-(2-fluoro-6-methoxyphenyl)pyrimidin-4-yl)-6′-(piperidin-1-yl)-[3,3′-bipyridin]-6-amine hydrochloride] | ≥ 8.00
23 | COc1cccc(F)c1-c1nccc(Nc2cc(N3CCC[C@H](N)C3)c(C#CC3CCOCC3)cn2)n1 [Example 79, (S)-N-(4-(3-aminopiperidin-1-yl)-5-((tetrahydro-2H-pyran-4-yl)ethynyl)pyridin-2-yl)-2-(2-fluoro-6-methoxyphenyl)pyrimidin-4-amine hydrochloride] | ≥ 8.00
24 | COc1cccc(F)c1-c1nc(Nc2cc(N3CCC[C@H](O)C3)c(-c3cnn(C(F)F)c3)cn2)ccc1C(=O)N(C)C [Example 141, 6-((5-(1-(difluoromethyl)-1H-pyrazol-4-yl)-4-((S)-3-hydroxypiperidin-1-yl)pyridin-2-yl)amino)-2-(2-fluoro-6-methoxyphenyl)-N,N-dimethylnicotinamide] | < 7.00
25 | COc1cc(F)cc(F)c1-c1nc(Nc2cc(N3CCC[C@H](N)C3)c(-c3cnn(C(F)F)c3)cn2)ccc1C#N [Example 310, 6-((4-((S)-3-aminopiperidin-1-yl)-5-(1-(difluoromethyl)-1H-pyrazol-4-yl)pyridin-2-yl)amino)-2-(2,4-difluoro-6-methoxyphenyl)nicotinonitrile hydrochloride] | ≥ 8.00
26 | COc1cccc(F)c1-c1nccc(Nc2cc(N3C[C@@H](N)C[C@@H](C(F)(F)F)C3)c(-c3cnn(C(F)F)c3)cn2)n1 [Example 305, N-(4-((3S,5R)-3-amino-5-(trifluoromethyl)piperidin-1-yl)-5-(1-(difluoromethyl)-1H-pyrazol-4-yl)pyridin-2-yl)-2-(2-fluoro-6-methoxyphenyl)pyrimidin-4-amine hydrochloride] | ≥ 8.00
